Measurements taken from publication PMC11170914, “A distinct dimer configuration of a diatom Get3 forming a tetrameric complex with its tail-anchored membrane cargo” (BMC Biology, 2024).

Biological target: T1, Pt-Get3a (Phaeodactylum tricornutum, UniProt B7G933)
T1 construct: gene PHATRDRAFT_22896; full length, residues 1-349; expressed in E. coli; N-terminal 6His tag cleaved by TEV protease
T1 sequence (B7G933 1-349): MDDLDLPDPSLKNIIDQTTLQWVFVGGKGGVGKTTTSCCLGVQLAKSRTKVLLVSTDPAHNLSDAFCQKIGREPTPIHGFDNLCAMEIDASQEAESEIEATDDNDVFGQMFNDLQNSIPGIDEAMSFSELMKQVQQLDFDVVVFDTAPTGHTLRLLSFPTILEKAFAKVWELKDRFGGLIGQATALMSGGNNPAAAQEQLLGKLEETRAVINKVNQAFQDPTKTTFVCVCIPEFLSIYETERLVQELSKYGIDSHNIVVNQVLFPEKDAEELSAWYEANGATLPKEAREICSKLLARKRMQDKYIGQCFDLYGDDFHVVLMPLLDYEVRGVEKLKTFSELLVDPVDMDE
Test: X-ray crystallography, […] Å
Conditions: co-crystal with 2 mM ADP, 2 mM MgCl2, 2 mM AlCl3, 8 mM NaF, pH 4.7, 25 °C; Mg2+/ADP in nucleotide-binding domain

## Nc1ncnc2c1ncn2[C@@H]1O[C@H](COP(=O)(O)OP(=O)(O)O)[C@@H](O)[C@H]1O [ADP]
  X-ray crystallography, 2.32 Å: an ADP and a magnesium ion were observed in the two crystallographic independent monomers
